Usually EC50 stands for the concentration at which the effect is half-maximal.

Assay [1] deals with HCV genotype 1a (H77 strain) replicon in HUH-7 cells. The experiment in a line: HCV replicon luciferase reporter assay, genotype 1a. The assay is classed as cell-based. The following applies: Hepatitis C virus, Huh-7, 72 h, HCV genotype 1a replicon luciferase, 3 days incubation, read-out: LE_1a (EC50, range). The gist of the method: (§1)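 Replicon inhibition for both genotypes was measured as Renilla luciferase signal (EnduRen, 7.5 μM final, 2 h) after 3-day, 37° C exposure of replicon-bearing HUH-7 cells in 4% FCS DMEM, 0.5% DMSO. The 1b construct carries S1179I; the 1a H77 construct carries P1496L and S2204I. Twenty-point, 3-fold dilutions were fitted four-parametrically for EC50, and CC50 was taken from multiplexed Cell Titer-Blue.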
(In general: In antiviral work, replicon cells carry a viral genome segment that copies itself.)

Assay [2] concerns HCV genotype 1b (Con1) replicon in HUH-7 cells. The experiment in a line: HCV replicon luciferase reporter assay, genotype 1b. It is filed as cell-based. The note with it: Hepatitis C virus, Huh-7, 72 h, HCV genotype 1b replicon luciferase, 3 days incubation, read-out: LE_1b (EC50, range). In a few lines: as §1

In the case of `CCOc1cc2cc(OC)ccc2c(O[C@@H]2C[C@H]3C(=O)N[C@]4(C(=O)NS(=O)(=O)C5(C)CC5)C[C@H]4/C=C\CC[C@@H](C)C[C@@H](C)[C@H](NC(=O)OC(C)(C)C(C)(F)F)C(=O)N3C2)n1` [Compound 3200, 3,3-difluoro-2-methylbutan-2-yl((2R,6S,7R,9R,13aS,14aR,16aS,Z)-2-((3-ethoxy-6-methoxyisoquinolin-1-yl)oxy)-7,9-dimethyl-14a-(((1-methylcyclopropyl)sulfonyl)carbamoyl)-5,16-dioxo-1,2,3,5,6,7,8,9,10,11,13a,14,14a,15,16,16a-hexadecahydrocyclopropa[e]pyrrolo[1,2-a][1,4]diazacyclopentadecin-6-yl)carbamate], the EC50 in assay [1] and in assay [2] was 0.51 to 1 nM each time.
`COc1ccc2c(O[C@@H]3C[C@H]4C(=O)N[C@]5(C(=O)NS(=O)(=O)C6(C)CC6)C[C@H]5/C=C\CC[C@@H](C)C[C@@H](C)[C@H](NC(=O)OC(C)(C)C(F)(F)F)C(=O)N4C3)nc(OC(C)C)cc2c1` [Compound 3202, 1,1,1-trifluoro-2-methylpropan-2-yl((2R,6S,7R,9R,13aS,14aR,16aS,Z)-2-((3-isopropoxy-6-methoxyisoquinolin-1-yl)oxy)-7,9-dimethyl-14a-(((1-methylcyclopropyl)sulfonyl)carbamoyl)-5,16-dioxo-1,2,3,5,6,7,8,9,10,11,13a,14,14a,15,16,16a-hexadecahydrocyclopropa[e]pyrrolo[1,2-a][1,4]diazacyclopentadecin-6-yl)carbamate]: the EC50 in assay [1] and in assay [2] was 1.01 to 5 nM in each case.
On to `COc1ccc2c(O[C@@H]3C[C@H]4C(=O)N[C@]5(C(=O)NS(=O)(=O)C6(C)CC6)C[C@H]5/C=C\CC[C@@H](C)C[C@@H](C)[C@H](NC(=O)OC(C)(C)C(C)(F)F)C(=O)N4C3)nc(OC(C)C)cc2c1` [Compound 3204, 3,3-difluoro-2-methylbutan-2-yl((2R,6S,7R,9R,13aS,14aR,16aS,Z)-2-((3-isopropoxy-6-methoxyisoquinolin-1-yl)oxy)-7,9-dimethyl-14a-(((1-methylcyclopropyl)sulfonyl)carbamoyl)-5,16-dioxo-1,2,3,5,6,7,8,9,10,11,13a,14,14a,15,16,16a-hexadecahydrocyclopropa[e]pyrrolo[1,2-a][1,4]diazacyclopentadecin-6-yl)carbamate], for which the EC50 in assay [1] lay within 0.51 to 1 nM; in assay [2] it was 1.01 to 5 nM.
For `CC[C@@H]1C[C@H](C)CC/C=C\[C@@H]2C[C@@]2(C(=O)NS(=O)(=O)C2(C)CC2)NC(=O)[C@@H]2C[C@@H](Oc3ncc(OC)c4cc(N(C)C)ccc34)CN2C(=O)[C@H]1NC(=O)OC(C)(C)C` [Compound 3206, tert-butyl ((2R,6S,7R,9R,13aS,14aR,16aS,Z)-2-((6-(dimethylamino)-4-methoxyisoquinolin-1-yl)oxy)-7-ethyl-9-methyl-14a-(((1-methylcyclopropyl)sulfonyl)carbamoyl)-5,16-dioxo-1,2,3,5,6,7,8,9,10,11,13a,14,14a,15,16,16a-hexadecahydrocyclopropa[e]pyrrolo[1,2-a][1,4]diazacyclopentadecin-6-yl)carbamate] the same measures were 1.01 to 5 nM and 1.01 to 5 nM.
The corresponding values for `CC[C@@H]1C[C@H](C)CC/C=C\[C@@H]2C[C@@]2(C(=O)NS(=O)(=O)C2(C)CC2)NC(=O)[C@@H]2C[C@@H](Oc3ncc(OC)c4cc(N(C)C)ccc34)CN2C(=O)[C@H]1NC(=O)OC(C)(C)C(F)(F)F` [Compound 3208, 1,1,1-trifluoro-2-methylpropan-2-yl((2R,6S,7R,9R,13aS,14aR,16aS,Z)-2-((6-(dimethylamino)-4-methoxyisoquinolin-1-yl)oxy)-7-ethyl-9-methyl-14a-(((1-methylcyclopropyl)sulfonyl)carbamoyl)-5,16-dioxo-1,2,3,5,6,7,8,9,10,11,13a,14,14a,15,16,16a-hexadecahydrocyclopropa[e]pyrrolo[1,2-a][1,4]diazacyclopentadecin-6-yl)carbamate] are 1.01 to 5 nM and 0.51 to 1 nM.

The values above are taken from US9499550B2 (BRISTOL-MYERS SQUIBB COMPANY, priority 2012, dated 2016).
